# In US6653342B2, “13-substituted milbemycin derivatives, their preparation and their use against insects and other pests” (Sankyo Company, Limited, priority 2000, dated 2003):
# Where “and” joins values, the source holds several entries; their conditions need not be identical. Equal values may be shown once.
# Key:
# cat fleas [1] = assay: whole plant or invertebrate; type: in vivo; conditions: 1 ppm in bovine serum sucked through Parafilm at 37° C.; dead fleas after 48 hours; 20 fleas per group; corrected by control group
# Description: A test container wherein the living space of fleas was isolated from bovine serum by use of Parafilm™ (obtainable from Aldrich Chemical Co. Ltd.), which is usually used as an artificial skin, was prepared. A compound to be tested was added to the bovine serum in an amount sufficient for its concentration to be 1 ppm, and the fleas were allowed to suck the serum sample through the Parafilm™ at 37° C. Each group consisted of 20 fleas. […] By counting the dead fleas in a control group without a test compound, the mortality was corrected.
# cat fleas [2] = assay: Test on elimination of fleas from dogs (Test Examples 2 and 3); type: in vivo, Ctenocephalides felis; conditions: beagles
# Description: Beagles provided for the test were infected with cat fleas prior to the commencement of the test. The number of fleas collected from the surface of the body of the dog three days after infection was counted and an infection ratio, calculated as the ratio of the fleas counted three days after infection to the initial number used to infect the dog, was determined for each dog.
# The resulting test solution was administered dropwise to the interscapular region of each of four test beagles (4 to 7 months old) at a dose of 5 mg/kg body weight. On Day 7, Day 21 and Day 28 after administration of the test compound, each dog was infected with 100 cat fleas. The number of fleas collected from the surface of the bodies of the dogs three days after infection was counted. The number of fleas obtained before and after administration was determined to give an elimination ratio.
# Thus, even 28 days after administration of the test compound, the elimination ratio was 100%.
# [3] = test system: roundworms (Toxocara canis); assay: Test on effect against roundworms in naturally infected dogs (Test Example 4); type: in vivo; conditions: dogs naturally infected with roundworm, one line per dog
# Description: (§1) For each of these three parasites, the number of eggs per gram (EPG) of dog faeces excreted was measured before, and 7 to 9 days after, administration of the test compound. The number of worms excreted in the faeces of the dog (WEF) between administration of the test compound and the end of the test was measured. Upon completion of the test, each of the test dogs was subjected to post mortem to count the number of surviving worms in the digestive tract (SWDT).
# [4] = test system: hookworms (Ancylostoma caninum); assay: Test on effect against hookworms in naturally infected dogs (Test Example 5); type: in vivo; conditions: dogs naturally infected with hookworm, one line per dog
# Description: as §1
# [5] = test system: whipworms (Trichuris vulpis); assay: Test on effect against whipworms in naturally infected dogs (Test Example 6); type: in vivo; conditions: dogs naturally infected with whipworm, one line per dog
# Description: as §1
# [6] = test system: Perforating Scabies (Sarcoptes scabiei); assay: Test on effect against perforating scabies, naturally infected dog (Test Example 7); type: in vivo
# Description: (§2) Dogs and cats naturally infected with scabies were provided for the test. […] This was administered at a rate of 5 mg/kg body weight to a test animal in its poll region. The epidermis was scraped off the test animal from its ears and limbs before administration and then three weeks after administration of the test compound. The epidermis thus obtained was then charged in a 10% potassium hydroxide solution and the number of worm bodies and eggs was observed microscopically.
# [7] = test system: Perforating Scabies (Sarcoptes scabiei); assay: Test on effect against perforating scabies, naturally infected cat (Test Example 7); type: in vivo
# Description: as §2
# [8] = test system: Southern root-knot nematode; assay: Test on insecticidal effect against Southern root-knot nematode, cucumber on agar plate (Test Example 10); type: in vivo; conditions: 1000 ppm solution on filter paper disks
# Description: An agar plate (80 ml: containing 1.25 ppm of kanamycin, 1.25 ppm of streptomycin and 0.8585 ppm of penicillin) was prepared in a container (70×70×20 mm). The plate was planted with a cucumber in the cotyledon stage of development. […] One of the thus-treated paper disks was put into the agar plate and two further treated paper disks were laid over the cotyledon.
# After treatment, the container was covered with an acrylic plate to prevent water evaporation. Four days later, about 2.5 ml of a suspension containing 500 second-stage larvae of Southern root-knot nematode were added dropwise to the agar plate. Ten days after addition of the larvae, the number of galls of nematodes was estimated. Each test was conducted at a temperature of 25° C. and a humidity of 65%. “Untreated” in this test is a control in which water was used to soak the filter paper instead of the test compound solution.
# The following criteria were used to judge the results obtained:
# 0: equal to the treatment-free group (51 to 150 galls)
# 1: slightly less than the treatment-free group (36 to 50 galls)
# 2: less than the treatment-free group (21 to 35 galls)
# 3: markedly less than the treatment-free group (0 to 20 galls)
# microfilariae (mf) = assay: Test on activity against microfilariae in culture with or without neutrophils (Test Example 8); conditions: 37° C., 5% CO2, compared to broth containing mf only
# [9] = 5 mg/kg dropwise to poll region
# [10] = 5 mg/kg to poll region, epidermis scraped from ears and limbs, counted microscopically
compound,measurement,setting,value
"CCC1OC2(CCC1C)CC1CC(CC=C(C)C(OC(=O)C3(c4ccc(NC(=O)COC)cc4)CCCC3)C(C)C=CC=C3COC4C(O)C(C)=CC(C(=O)O1)C34O)O2 (stereo not drawn) [Example 1(c), 13-[1-(4-Methoxyacetylaminophenyl)cyclopentanecarbonyloxy]-5-hydroxy-milbemycin A4]",Mortality (%),cat fleas [1],90.2%
same,elimination ratio,"cat fleas [2]; 5 mg/kg body weight dropwise to interscapular region (10% w/v solution), infected with 100 cat fleas 28 days after administration, counted three days after infection",100%
same,number of fleas collected from the surfaces of the bodies of the dogs three days after infection,"cat fleas [2]; 5 mg/kg dropwise, infection with 100 cat fleas on each of Day 7, Day 21 and Day 28 after administration",no fleas were collected
same,EPG after 7-9 Days,"[3]; 5 mg/kg dropwise to poll region, eggs per gram of faeces",0 eggs per gram
same,WEF (number of worms excreted in the faeces),"[3]; 5 mg/kg dropwise, between administration and end of test, 5 mg/kg",3 and 5 and 8
same,Elimination ratio (%),[3]; 5 mg/kg dropwise,100%
same,SWDT (number of surviving worms in the digestive tract),"[3]; 5 mg/kg dropwise, post mortem",0
same,EPG after 7-9 Days,[4]; [9],0 eggs per gram
same,Elimination ratio (%),[4]; 5 mg/kg dropwise,100%
same,SWDT (number of surviving worms in the digestive tract),"[4]; 5 mg/kg dropwise, post mortem",0
same,EPG after 7-9 Days,[5]; [9],0 eggs per gram
same,Elimination ratio (%),[5]; 5 mg/kg dropwise,100%
same,SWDT (number of surviving worms in the digestive tract),"[5]; 5 mg/kg dropwise, post mortem",0
same,After administration (three weeks later) Egg,[6]; [10],0
same,After administration (three weeks later) Worm body,[6]; [10],9
same,oviposition of scabies,"[6]; 5 mg/kg, after three weeks",prevented completely
same,After administration (three weeks later) Egg,[7]; [10],0
same,After administration (three weeks later) Worm body,[7]; [10],0
same,effects against scabies,"[7]; 5 mg/kg, after three weeks",100%
same,oviposition preventing effects,"[7]; 5 mg/kg, after three weeks",100%
same,Effect (result),[8]; graded by number of galls ten days after addition of larvae,3 (markedly less than the treatment-free group (0 to 20 galls))
same,Number of galls,"[8]; ten days after addition of 500 second-stage larvae, 25° C., humidity 65%",6
same,Percentage reduction of microfilariae,microfilariae (mf); mf + neutrophils + test compound (100 ng/ml),53.8%
same,Percentage reduction of microfilariae,"microfilariae (mf); mf + test compound (100 ng/ml), no neutrophils",0.02%
